# Test results as given in US12344649B2, “Modulators of parathyroid hormone receptor (PTHR1)” (Flagship Pioneering Innovations VI, LLC, priority 2019, dated 2025).
# “And” between values parts separate entries of the source, which are not always exact repeats. Identical values can stand only once. Where no end group is shown, it is not given here.
# Columns and labels:
# Format in all cases: cell-based
# PTHR1 [1] = molecular target: T1, PTHR1 (Homo sapiens, UniProt Q03431); experiment: cAMP accumulation assay (HTRF) in CHO-K1/Ga15/PTHR1 cells; set-up: host or cells: CHO-K1 (recombinant line CHO-K1/Ga15/PTHR1); details: for Emax: CHO-K1, cAMP assay, fitted dose-response maximum; for cAMP accumulation activity compared to control peptide: FIG. 3, PTH 1-34 positive control; for cAMP: relative to PTH [1-34], CHO-K1/Ga15/PTHR1 cells
# T1 sequence (Q03431 27-593): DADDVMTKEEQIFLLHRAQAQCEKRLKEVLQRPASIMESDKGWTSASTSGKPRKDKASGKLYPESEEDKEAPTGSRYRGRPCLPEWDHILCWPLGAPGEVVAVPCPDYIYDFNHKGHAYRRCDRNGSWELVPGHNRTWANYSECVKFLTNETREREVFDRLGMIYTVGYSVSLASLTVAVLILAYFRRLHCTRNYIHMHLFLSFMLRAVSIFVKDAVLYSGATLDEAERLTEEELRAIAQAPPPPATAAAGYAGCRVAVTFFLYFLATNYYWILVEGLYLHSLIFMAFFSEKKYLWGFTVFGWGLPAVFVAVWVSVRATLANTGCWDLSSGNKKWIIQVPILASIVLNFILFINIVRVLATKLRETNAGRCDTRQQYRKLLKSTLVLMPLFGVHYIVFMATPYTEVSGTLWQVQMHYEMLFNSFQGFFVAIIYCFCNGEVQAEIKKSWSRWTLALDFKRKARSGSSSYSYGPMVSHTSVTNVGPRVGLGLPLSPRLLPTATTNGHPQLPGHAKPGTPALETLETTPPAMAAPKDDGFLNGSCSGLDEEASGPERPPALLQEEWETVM
# Procedure: Cell suspension (5 μL) was seeded in 384-well plates at a density of 3,000 cells/well. Cells were treated with test samples (5 μL) or agonist (PTH 1-34) for 30 minutes at room temperature. cAMP-d2 working solution (5 μL) and anti-cAMP-Cryptate working solution (5 μL) were added to cells and incubated for 60 minutes at room temperature. The signal of the assay plate was read with PheraStar (BMG LABTECH, NC), an HTRF compatible reader.
# PTHR1 [2] = molecular target: T1, PTHR1; experiment: β-arrestin1 recruitment BRET assay in transfected HEK293T cells; set-up: Flag (N); Life Technologies Corporation, CA (arrestin cDNA); host or cells: HEK293T (CRL-3216, ATCC); details: for −log10Slope: fitted curve slope; for −log10Slope / EC50: replicate plates; for β1-arrestin: relative to PTH [1-34], HEK293T cells, BRET
# Procedure: (§1) 18-24 hours post transfection, the Luciferase substrate Coelenterazine (NanoLight Technologies, AZ) was added to cells, a baseline BRET measurement was taken after 5 minutes incubation, and then serial dilutions of peptides, diluted in PBS (with 0.5 mM MgCl2+0.1% BSA FAF), were added to cells, and BRET signal was measured every 2 minutes for 30 minutes on Hybrid Multi-Mode Reader (Synergy Neo2, BioTek, VT). Seventy-five peptides were tested in the β-arrestin recruitment assay.
# PTHR1 [3] = molecular target: T1, PTHR1; experiment: β-arrestin2 recruitment BRET assay in transfected HEK293T cells; set-up: Flag (N); Life Technologies Corporation, CA (arrestin cDNA); host or cells: HEK293T (CRL-3216, ATCC); details: for −log10Slope: fitted curve slope; for −log10Slope / EC50: replicate plates; for β-arrestin2 assay activity compared to control peptide: FIG. 2, PTH 1-34 positive control; for β2-arrestin: relative to PTH [1-34], HEK293T cells, BRET
# Procedure: as §1
# [4] = cAMP assay, fitted dose-response curve, read-out: −log10EC50 (converted)
# [5] = cAMP assay, fitted dose-response slope
# [6] = β-arrestin1 recruitment, read-out: −log10EC50 (converted)
# [7] = cAMP accumulation, fitted curve slope, replicate plates
# [8] = cAMP accumulation, replicate plates, read-out: −log10EC50 (converted)
# [9] = β-arrestin2 recruitment, read-out: −log10EC50 (converted)
Sequence,Emax (PTHR1 [1]),EC50 (PTHR1 [1]; [4]),−log10Slope (PTHR1 [1]; [5]),−log10Slope (PTHR1 [2]; β-arrestin1 recruitment),−log10Slope (PTHR1 [3]; β-arrestin2 recruitment),EC50 (PTHR1 [2]; [6]),−log10Slope (PTHR1 [1]; [7]),EC50 (PTHR1 [1]; [8]),"β-arrestin1 recruitment compared to PTH 1-34 (PTHR1 [2]; FIG. 1, PTH 1-34 positive control)",β1-arrestin (PTHR1 [2]),cAMP accumulation activity compared to control peptide (PTHR1 [1]),cAMP (PTHR1 [1]),EC50 (PTHR1 [3]; [9]),β-arrestin2 assay activity compared to control peptide (PTHR1 [3]),β2-arrestin (PTHR1 [3]),"−log10Slope (PTHR1 [2]; β-arrestin1 recruitment, listed as R1-81)","−log10Slope (PTHR1 [3]; β-arrestin2 recruitment, listed as R1-81)",EC50 (PTHR1 [1]),"EC50 (PTHR1 [2]; −log10EC50, β-arrestin1 recruitment)","EC50 (PTHR1 [3]; −log10EC50, β-arrestin2 recruitment)"
AVAEIQLMHQRAKWELEFELFREFLKLLVDFF [Peptide R1-97],99.3%,58.7 nM,−14.176,−0.04462 and −1.336 and −0.04454 and −4.221,−4.859 and −4.946 and −1.289 and −4.995,,,,,,,,,,,,,,,
AVAEIQLMHQRAKWELEYELFEMFLKLLEEIF [Peptide R1-100],99.9%,52.8 nM,−12.0796,−6.023 and −5.129 and −4.482,−5.84 and −1.653 and −5.805,607 nM and 605 nM and 569 nM,,,,,,,,,,,,,,
AVAEIQLMHQRAKWELLEELLKILLELLKEYI [Peptide R2-38],,,,−5.307,−4.789,0.0179 nM,−7.566,124 nM,higher levels of recruitment of β-arrestin 1,++,,,,,,,,,,
AVAEIQLMHQRAKWELQEIGIAITLRLLARYI [Peptide R2-43],,,,−3.786 and −3.741 and −1.605,−6.422 and −8.23 and −2.379,,7.669,0.0348 nM,,,increased activity as compared to the control peptide,++,,,,,,,,
AVAEIQLMHQRAKWGLDLELAVKLQEILKDVL [Peptide R2-28],,,,−1.455,−3.381,,−5.52,92.4 nM,,,,,800 nM,,,,,,,
AVAEIQLMHQRAKWGLDLELRARLREILRDVY [Peptide R2-31],,,,−2.895 and −4.559,−3.98 and −2.409,9.96 nM and 2.96 nM,−0.697,,,,,,6.58 nM and 7.64 nM,activity similar to the control peptide,+,,,,,
AVAEIQLMHQRAKWGLEIELLKLLLSLLKEYI [Peptide R2-45],,,,−4.328 and −4.739 and −2.6191,−2.787 and −1.761 and −3.574,483 nM and 470 nM and 542 nM,4.438,0.00841 nM,,,increased activity as compared to the control peptide,++,255 nM and 1750 nM and 337 nM,,,,,,,
AVAEIQLMHQRAKWGLELELKEKLRKILEDVY [Peptide R2-26],,,,−2.291 and −7.462,−2.019 and −6.257,27.1 nM and 12.9 nM,−14.6415,84.5 nM,,,,,16.1 nM and 12.5 nM,,,,,,,
AVAEIQLMHQRAKWGVELQLKVDLRRILEDVY [Peptide R2-35],,,,−0.6156 and −2.473 and −2.432,−3.628 and −0.891 and −4.077,,−9.142,9.84 nM,,,activity similar to the control peptide,+,,,,,,,,
"AVAEIQLMHQRAKWIQDARRRAFLHKLIAEIH [LA-PM-FL, reference compound]",,,,,,1.75 nM and 2.65 nM and 3.53 nM,−5.23,13.1 nM,,+,,,3.64 nM and 3.04 nM and 3.08 nM,increased activity as compared to control,++,−3.271 and −2.571 and −2.99,−3.14 and −3.448 and −2.307,,,
AVAEIQLMHQRAKWKILEELLKILIDLLKQYI [Peptide R2-48],98.8%,64 nM,−14.2687,−3.1505 and −0.7628,−8.231 and −1.939,1890 nM,,,,,,,0.0212 nM,increased activity as compared to control,++,,,,,
AVAEIQLMHQRAKWKLDLELAVSLRKILEDVY [Peptide R2-27],,,,−7.323 and −7.877,−1.829 and −3.204,12 nM and 9.45 nM,−4.343,12.2 nM,,,activity similar to the control peptide,+,22.6 nM and 8.32 nM,,,,,,,
AVAEIQLMHQRAKWKLELELKAFLDQILKDVL [Peptide R2-36],,,,−5.884 and −3.429 and −1.931,−4.1664 and −3.85 and −3.8162,1.47 nM and 4.7 nM and 2.91 nM,−1.696,4.76 nM,,+,activity similar to the control peptide,+,2.5 nM and 1.98 nM and 5.39 nM,increased activity as compared to control,++,,,,,
AVAEIQLMHQRAKWKLELELKEKIRKLLEDLL [Peptide R2-29],,,,−5.782 and −7.833,−2.874 and −3.055,,−16.1973,,,+,,,,increased activity as compared to control,++,,,60.4 nM,7.12 nM and 1.68 nM,4.09 nM and 3.49 nM
AVAEIQLMHQRAKWKLELELKVKLLEILKDVY [Peptide R2-25],,,,−3.965 and −2.819,−3.2515 and −2.752,2.59 nM and 5.42 nM,−10.1961,12.9 nM,,,activity similar to the control peptide,+,4.3 nM and 1.73 nM,increased activity as compared to control,++,,,,,
AVAEIQLMHQRAKWLEELKLKDDLRKILEDVY [Peptide R2-30],,,,−4.267 and −2.2289,−2.543 and −1.4524,13.3 nM and 5.21 nM,−18.1852,80 nM,,,,,12.1 nM and 5.02 nM,activity similar to the control peptide,+,,,,,
AVAEIQLMHQRAKWLNELRLKEEMRKILEDVY [Peptide R2-33],,,,−2.007 and −4.048 and −4.079,−5.331 and −2.162 and −8.426,5.83 nM and 10.3 nM and 3.98 nM,−17.9495,80.1 nM,,,,,7.61 nM and 4.94 nM and 8.19 nM,activity similar to the control peptide,+,,,,,
AVAEIQLMHQRAKWRLEIELLKKLKEILKDVY [Peptide R2-34],,,,−3.251 and −3.221 and −4.25,−3.972 and −3.591 and −3.249,2.75 nM and 6.54 nM and 3.31 nM,−11.9049,106 nM,,,,,4.54 nM and 3.85 nM and 8.05 nM,activity similar to the control peptide,+,,,,,
AVAEIQLMHQRAKWSLREELEKLLKELLKEYI [Peptide R2-44],,,,−3.276 and −2.346 and −3.027,−0.789 and −3.6425 and −9.383,2.88 nM and 15 nM and 2.81 nM,0.4711,0.0365 nM,,,increased activity as compared to the control peptide,++,,,,,,,,
GIAVITLMDLRAYLRAEYELREMLLRLLEEIF [Peptide R2-13],,,,−3.163,−3.619,1.61 nM,−3.312,4870 nM,,+,,,,,,,,,,
